Measured values from article PMC7070733 (Molecules, 2020).
≈ marks a conversion by molar mass, not a printed value. Where “and” joins values, the source holds several entries; their conditions need not be identical. Equal entries are not always repeated. Entries after “also recorded” stand apart in the source; their conditions may differ.

Tests used:
[1] = molecular target: H1N1 NA (Influenza A virus, UniProt Q9IGQ6); assay: biochemical; format: biochemical
[2] = system: C. perfringens NA; format: biochemical; details: for IC50 / IC50 NA-C. perfringens: MUNANA substrate; for IC50 NA-C. perfringens: nd = no detection
[3] = system: endonuclease activity of RNA polymerase in influenza A virus; set-up: method as in earlier work; details: ref 40 (Kuzuhara et al. 2009); cited from earlier work
[4] = system: influenza virus replication; set-up: method as in PMID 16137775; details: in vitro; cited from earlier work

H1N1 NA, sequence (Q9IGQ6 whole entry, looked up): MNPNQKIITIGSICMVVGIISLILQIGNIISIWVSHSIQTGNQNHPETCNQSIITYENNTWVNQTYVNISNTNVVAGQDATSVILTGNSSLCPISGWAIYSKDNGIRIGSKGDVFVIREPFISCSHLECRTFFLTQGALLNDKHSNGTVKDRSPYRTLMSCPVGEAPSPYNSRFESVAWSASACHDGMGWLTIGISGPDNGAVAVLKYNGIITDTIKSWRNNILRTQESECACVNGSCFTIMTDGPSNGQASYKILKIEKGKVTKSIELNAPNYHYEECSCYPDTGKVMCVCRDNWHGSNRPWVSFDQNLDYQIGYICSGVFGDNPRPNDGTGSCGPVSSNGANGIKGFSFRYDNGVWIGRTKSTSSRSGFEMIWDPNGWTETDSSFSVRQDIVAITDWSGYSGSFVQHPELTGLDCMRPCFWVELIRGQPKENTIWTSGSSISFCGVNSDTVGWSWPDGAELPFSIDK

Compound | melting point | activity against H1N1 NA (in words) [1] | IC50 ([1]; IC50 NA-H1N1) | activity against C. perfringens NA (in words) [2] | maximum inhibition against C. perfringens-NA [2] | IC50 [2] | IC50 NA-C. perfringens [2] | inhibition of endonuclease activity of RNA polymerase (in words) [3] | IC50 ([1]; IC50 H1N1 NA) | inhibition of influenza virus replication (in words) [4]
COC(=O)/C(C)=C/C(O)CC(C)C1(C)CC=C2C3CCC4C(C)(C)C(O)CCC4(C)C3(O)CCC21C (stereo not drawn) [GC2, Methyl (24E)-3a,9,23-trihydroxy-17,14-friedolanostan-14,24-dien-26-oate] | 130 to 135 °C | did not show any significant activity; also recorded: less active | 1920 µM | less active; also recorded: satisfactory inhibition | 79% | 123 µM | 81.78 mg/L and 81.72 mg/L | – | – | –
CC(=O)N[C@H]1[C@H]([C@H](O)[C@H](O)CO)OC(C(=O)O)=C[C@@H]1O [DANA, 2,3-didehydro-2-deoxy-N-acetylneuraminic acid, reference compound] | – | – | – | – | – | – | 28.79 mg/L (≈ 98.8 µM) | – | – | –
Oc1cc(O)c2c(c1)OC(c1ccc(O)c(O)c1)C(O)C2 (stereo not drawn) [GC4, catechin] | – | moderately active; also recorded: moderate activity | 90.6 µM | moderately active; also recorded: moderate activity | – | 60.3 µM | 17.48 mg/L (≈ 60.2 µM) | inhibited | 91 µM | good inhibition
C[C@H]1C(=O)CC[C@@H]2[C@]1(C)CC[C@H]1[C@@]2(C)CC[C@@]2(C)[C@@H]3CC(C)(C)CC[C@]3(C)CC[C@]12C [GC1, Friedeline] | – | inactive | – | not active | – | – | – | – | – | –
